Test results as given in PubChem BioAssay AID1963834 (Molecular Pharmacology Branch, DTP, NCI, 2024).

System: 873145-292-R-J1-PDC complex spheroid viability
Assay: Anticancer human tumor 873145-292-R-J1-PDC patient-derived renal clear cell carcinoma cell line growth inhibition [POLQ]
Conditions: for IC50: curve of first compound; for viability, T/C: stronger effect = lower value; active = viability on the fitted dose curve at most 10% of control; inactive = the rest
Method in brief: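 Patient-derived tumour cells were co-cultured with HUVEC and mesenchymal stem cells as multicellular spheroids at 37 °C. They were treated with POLQ inhibitors (novobiocin, ART-558, RP6685) alone or combined with other agents. Top concentrations were at or near clinical Cmax (otherwise 10 microM; SN-38 at 1 microM), decreasing in half-log steps.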

[1] = second compound 0.0316 µM, first compound 0.0316 µM
[2] = second compound 0.0316 µM, first compound 0.1 µM
[3] = second compound 0.0316 µM, first compound 0.316 µM
[4] = second compound 0.0316 µM, first compound 1 µM
[5] = second compound 0.0316 µM, first compound 3.16 µM
[6] = second compound 0.0316 µM, first compound 10 µM
[7] = second compound 0.1 µM, first compound 0.0316 µM
[8] = second compound 0.1 µM, first compound 0.1 µM
[9] = second compound 0.1 µM, first compound 0.316 µM
[10] = second compound 0.1 µM, first compound 1 µM
[11] = second compound 0.1 µM, first compound 3.16 µM
[12] = second compound 0.1 µM, first compound 10 µM
[13] = second compound 0.316 µM, first compound 0.0316 µM
[14] = second compound 0.316 µM, first compound 0.1 µM
[15] = second compound 0.316 µM, first compound 0.316 µM
[16] = second compound 0.316 µM, first compound 1 µM
[17] = second compound 0.316 µM, first compound 3.16 µM
[18] = second compound 0.316 µM, first compound 10 µM
[19] = second compound 1 µM, first compound 0.0316 µM
[20] = second compound 1 µM, first compound 0.1 µM
[21] = second compound 1 µM, first compound 0.316 µM
[22] = second compound 1 µM, first compound 1 µM
[23] = second compound 1 µM, first compound 3.16 µM
[24] = second compound 1 µM, first compound 10 µM
[25] = second compound 3.16 µM, first compound 0.0316 µM
[26] = second compound 3.16 µM, first compound 0.1 µM
[27] = second compound 3.16 µM, first compound 0.316 µM
[28] = second compound 3.16 µM, first compound 1 µM
[29] = second compound 3.16 µM, first compound 3.16 µM
[30] = second compound 3.16 µM, first compound 10 µM
[31] = second compound 10 µM, first compound 0.0316 µM
[32] = second compound 10 µM, first compound 0.1 µM
[33] = second compound 10 µM, first compound 0.316 µM
[34] = second compound 10 µM, first compound 1 µM
[35] = second compound 10 µM, first compound 3.16 µM
[36] = second compound 10 µM, first compound 10 µM
[37] = second compound 0.0316 µM, first compound 0.00316 µM
[38] = second compound 0.0316 µM, first compound 0.01 µM
[39] = second compound 0.1 µM, first compound 0.00316 µM
[40] = second compound 0.1 µM, first compound 0.01 µM
[41] = second compound 0.316 µM, first compound 0.00316 µM
[42] = second compound 0.316 µM, first compound 0.01 µM
[43] = second compound 1 µM, first compound 0.00316 µM
[44] = second compound 1 µM, first compound 0.01 µM
[45] = second compound 3.16 µM, first compound 0.00316 µM
[46] = second compound 3.16 µM, first compound 0.01 µM
[47] = second compound 10 µM, first compound 0.00316 µM
[48] = second compound 10 µM, first compound 0.01 µM
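Note: spheroids exposed to compounds for 7 days before viability readout.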
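Throughout, for viability, T/C: luminescence signal used as surrogate for viable cell content; 100% = DMSO vehicle control viability.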

CCCS(=O)(=O)Nc1ccc(F)c(C(=O)c2c[nH]c3ncc(-c4ccc(Cl)cc4)cc23)c1F + Cc1cccc(N(C)C(=O)C2C(O)CCN2c2nc(C)cc(C(F)(F)F)c2C#N)c1
> 10 µM: IC50 (second compound 0.0316 µM) | IC50 (second compound 0.1 µM) | IC50 (second compound 0.316 µM) | IC50 (second compound 1 µM) | IC50 (second compound 3.16 µM) | IC50 (second compound 10 µM)
inactive: viability, T/C [1] 115% | viability, T/C [2] 110% | viability, T/C [3] 113% | viability, T/C [4] 118% | viability, T/C [5] 89.9% | viability, T/C [6] 79.3% | viability, T/C [7] 105% | viability, T/C [8] 106% | viability, T/C [9] 90.8% | viability, T/C [10] 121% | viability, T/C [11] 105% | viability, T/C [12] 67.6% | viability, T/C [13] 117% | viability, T/C [14] 125% | viability, T/C [15] 94.4% | viability, T/C [16] 112% | viability, T/C [17] 97.4% | viability, T/C [18] 80.6% | viability, T/C [19] 98.6% | viability, T/C [20] 102% | viability, T/C [21] 103% | viability, T/C [22] 106% | viability, T/C [23] 105% | viability, T/C [24] 68.6% | viability, T/C [25] 101% | viability, T/C [26] 111% | viability, T/C [27] 109% | viability, T/C [28] 107% | viability, T/C [29] 105% | viability, T/C [30] 83.8% | viability, T/C [31] 103% | viability, T/C [32] 101% | viability, T/C [33] 96.1% | viability, T/C [34] 109% | viability, T/C [35] 96.8% | viability, T/C [36] 81.1%

CNCc1ccc(-c2[nH]c3cc(F)cc4c3c2CCNC4=O)cc1 + Cc1cccc(N(C)C(=O)C2C(O)CCN2c2nc(C)cc(C(F)(F)F)c2C#N)c1
inactive: viability, T/C [1] 93.1% | viability, T/C [2] 111% | viability, T/C [3] 96.6% | viability, T/C [4] 96.4% | viability, T/C [5] 110% | viability, T/C [6] 96.2% | viability, T/C [7] 110% | viability, T/C [8] 94.1% | viability, T/C [9] 89.5% | viability, T/C [10] 91.8% | viability, T/C [11] 108% | viability, T/C [12] 99.9% | viability, T/C [13] 111% | viability, T/C [14] 101% | viability, T/C [15] 99% | viability, T/C [16] 91.3% | viability, T/C [17] 97.5% | viability, T/C [18] 111% | viability, T/C [19] 99.5% | viability, T/C [20] 102% | viability, T/C [21] 99.1% | viability, T/C [22] 109% | viability, T/C [23] 101% | viability, T/C [24] 95.9% | viability, T/C [25] 102% | viability, T/C [26] 91% | viability, T/C [27] 97.6% | viability, T/C [28] 87.9% | viability, T/C [29] 101% | viability, T/C [30] 107% | viability, T/C [31] 88.6% | viability, T/C [32] 90.4% | viability, T/C [33] 106% | viability, T/C [34] 88.8% | viability, T/C [35] 106% | viability, T/C [36] 94.5%
> 10 µM: IC50 (second compound 0.0316 µM) | IC50 (second compound 0.1 µM) | IC50 (second compound 0.316 µM) | IC50 (second compound 1 µM) | IC50 (second compound 3.16 µM) | IC50 (second compound 10 µM)

COc1cccc(OCCCN)c1-c1cc(Nc2cnc(C#N)cn2)n[nH]1 + Cc1cccc(N(C)C(=O)C2C(O)CCN2c2nc(C)cc(C(F)(F)F)c2C#N)c1
> 1 µM: IC50 (second compound 0.0316 µM) | IC50 (second compound 0.1 µM) | IC50 (second compound 0.316 µM) | IC50 (second compound 1 µM) | IC50 (second compound 3.16 µM) | IC50 (second compound 10 µM)
inactive: viability, T/C [37] 102% | viability, T/C [38] 111% | viability, T/C [1] 77.8% | viability, T/C [2] 69.7% | viability, T/C [3] 74.8% | viability, T/C [4] 78.3% | viability, T/C [39] 104% | viability, T/C [40] 103% | viability, T/C [7] 65.9% | viability, T/C [8] 73.7% | viability, T/C [9] 66.5% | viability, T/C [10] 82.1% | viability, T/C [41] 95.5% | viability, T/C [42] 91.5% | viability, T/C [13] 72.7% | viability, T/C [14] 73.9% | viability, T/C [15] 75.6% | viability, T/C [16] 83% | viability, T/C [43] 98.2% | viability, T/C [44] 90.3% | viability, T/C [19] 77.5% | viability, T/C [20] 70.8% | viability, T/C [21] 81.8% | viability, T/C [22] 79.1% | viability, T/C [45] 98.9% | viability, T/C [46] 91.7% | viability, T/C [25] 84.7% | viability, T/C [26] 82.3% | viability, T/C [27] 67.7% | viability, T/C [28] 77.3% | viability, T/C [47] 88.1% | viability, T/C [48] 93.6% | viability, T/C [31] 91.2% | viability, T/C [32] 74.7% | viability, T/C [33] 88.6% | viability, T/C [34] 91.8%

Cn1ncnc1[C@H]1c2n[nH]c(=O)c3cc(F)cc(c23)N[C@@H]1c1ccc(F)cc1 + Cc1cccc(N(C)C(=O)C2C(O)CCN2c2nc(C)cc(C(F)(F)F)c2C#N)c1
inactive: viability, T/C (second compound 0.0316 µM, first compound 0.000316 µM) 104% | viability, T/C (second compound 0.0316 µM, first compound 0.001 µM) 94% | viability, T/C [37] 102% | viability, T/C [38] 97.5% | viability, T/C [1] 95.7% | viability, T/C [2] 98% | viability, T/C (second compound 0.1 µM, first compound 0.000316 µM) 104% | viability, T/C (second compound 0.1 µM, first compound 0.001 µM) 103% | viability, T/C [39] 91.6% | viability, T/C [40] 93.9% | viability, T/C [7] 105% | viability, T/C [8] 88.5% | viability, T/C (second compound 0.316 µM, first compound 0.000316 µM) 112% | viability, T/C (second compound 0.316 µM, first compound 0.001 µM) 99% | viability, T/C [41] 87.6% | viability, T/C [42] 89.6% | viability, T/C [13] 91.7% | viability, T/C [14] 89.3% | viability, T/C (second compound 1 µM, first compound 0.000316 µM) 102% | viability, T/C (second compound 1 µM, first compound 0.001 µM) 95.2% | viability, T/C [43] 105% | viability, T/C [44] 97% | viability, T/C [19] 97.7% | viability, T/C [20] 96.3% | viability, T/C (second compound 3.16 µM, first compound 0.000316 µM) 97% | viability, T/C (second compound 3.16 µM, first compound 0.001 µM) 96.3% | viability, T/C [45] 105% | viability, T/C [46] 93.5% | viability, T/C [25] 99.8% | viability, T/C [26] 91.8% | viability, T/C (second compound 10 µM, first compound 0.000316 µM) 103% | viability, T/C (second compound 10 µM, first compound 0.001 µM) 89.7% | viability, T/C [47] 109% | viability, T/C [48] 90.3% | viability, T/C [31] 97.8% | viability, T/C [32] 86.9%
> 0.1 µM: IC50 (second compound 0.0316 µM) | IC50 (second compound 0.1 µM) | IC50 (second compound 0.316 µM) | IC50 (second compound 1 µM) | IC50 (second compound 3.16 µM) | IC50 (second compound 10 µM)
